# Assay results reported in PubChem BioAssay (NCI).
#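 Interpolation was linear, between the two tested concentrations surrounding the appropriate level; five concentrations were tested over 48 hours in 96-well plates. TGI: total growth inhibition.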
# Tests used:
# Assay in all cases: inhibition of tumour cell growth, NCI panel, 48 h
# COLO 205 colon = system: COLO 205 colon
# M14 melanoma = system: M14 melanoma
# U251 CNS = system: U251 CNS
# TK-10 renal = system: TK-10 renal
# SK-MEL-28 melanoma = system: SK-MEL-28 melanoma
# MALME-3M melanoma = system: MALME-3M melanoma
# MDA-N = system: MDA-N
# MCF7 breast = system: MCF7 breast
# SK-MEL-5 melanoma = system: SK-MEL-5 melanoma
# SW-620 colon = system: SW-620 colon
# HL-60(TB) leukemia = system: HL-60(TB) leukemia
# CCRF-CEM leukemia = system: CCRF-CEM leukemia
# BT-549 breast = system: BT-549 breast
# A549 NSCLC = system: A549 NSCLC
# EKVX NSCLC = system: EKVX NSCLC
# HOP-92 NSCLC = system: HOP-92 NSCLC
# SF-268 CNS = system: SF-268 CNS
# MDA-MB-231 breast = system: MDA-MB-231 breast
# HCT-15 colon = system: HCT-15 colon
# A498 renal = system: A498 renal
# HCC-2998 colon = system: HCC-2998 colon
# CAKI-1 renal = system: CAKI-1 renal
# NCI/ADR-RES ovarian = system: NCI/ADR-RES ovarian
# 786-0 renal = system: 786-0 renal
# UACC-257 melanoma = system: UACC-257 melanoma
# SF-539 CNS = system: SF-539 CNS
# SK-OV-3 ovarian = system: SK-OV-3 ovarian
# NCI-H23 lung = system: NCI-H23 lung
# ACHN renal = system: ACHN renal
# HS 578T breast = system: HS 578T breast
# T-47D breast = system: T-47D breast
# IGROV1 ovarian = system: IGROV1 ovarian
# K-562 leukemia = system: K-562 leukemia
# SR leukemia = system: SR leukemia
# OVCAR-5 ovarian = system: OVCAR-5 ovarian
# HT29 colon = system: HT29 colon
# OVCAR-4 ovarian = system: OVCAR-4 ovarian
# RXF 393 renal = system: RXF 393 renal
# SF-295 CNS = system: SF-295 CNS
# SNB-75 CNS = system: SNB-75 CNS
# MOLT-4 leukemia = system: MOLT-4 leukemia
# RPMI-8226 leukemia = system: RPMI-8226 leukemia
# OVCAR-8 ovarian = system: OVCAR-8 ovarian
# PC-3 prostate = system: PC-3 prostate
# HCT-116 colon = system: HCT-116 colon
# SNB-19 CNS = system: SNB-19 CNS
# OVCAR-3 ovarian = system: OVCAR-3 ovarian
# NCI-H522 lung = system: NCI-H522 lung
# HOP-62 NSCLC = system: HOP-62 NSCLC
# NCI-H226 lung = system: NCI-H226 lung
# KM12 colon = system: KM12 colon
# MDA-MB-435 = system: MDA-MB-435
# NCI-H460 lung = system: NCI-H460 lung
# DU-145 prostate = system: DU-145 prostate
# LOX IMVI melanoma = system: LOX IMVI melanoma
# UACC-62 melanoma = system: UACC-62 melanoma
# SK-MEL-2 melanoma = system: SK-MEL-2 melanoma
# SN12C renal = system: SN12C renal
smiles,measurement,setting,value
COc1ccc2c(c1)CCC(CN1CCN(CCOC(c3ccc(F)cc3)c3ccc(F)cc3)CC1)C2O (stereo not drawn),TGI,COLO 205 colon,20.2 µM
same,TGI,M14 melanoma,25.5 µM
same,TGI,U251 CNS,26.1 µM
same,TGI,TK-10 renal,29.7 µM
same,TGI,SK-MEL-28 melanoma,30 µM
same,TGI,MALME-3M melanoma,28 µM
same,TGI,MDA-N,29.7 µM
same,TGI,MCF7 breast,39.7 µM
same,TGI,SK-MEL-5 melanoma,20.1 µM
same,TGI,SW-620 colon,> 100 µM
same,TGI,HL-60(TB) leukemia,14.6 µM
same,TGI,CCRF-CEM leukemia,48.3 µM
same,TGI,BT-549 breast,27.5 µM
same,TGI,A549 NSCLC,32.7 µM
same,TGI,EKVX NSCLC,25.5 µM
same,TGI,HOP-92 NSCLC,26.7 µM
same,TGI,SF-268 CNS,27 µM
same,TGI,MDA-MB-231 breast,27.4 µM
same,TGI,HCT-15 colon,22.3 µM
same,TGI,A498 renal,19.9 µM
same,TGI,HCC-2998 colon,9.33 µM
same,TGI,CAKI-1 renal,32 µM
same,TGI,NCI/ADR-RES ovarian,25.4 µM
same,TGI,786-0 renal,25.2 µM
same,TGI,UACC-257 melanoma,28.1 µM
same,TGI,SF-539 CNS,51.6 µM
same,TGI,SK-OV-3 ovarian,31.5 µM
same,TGI,NCI-H23 lung,28.1 µM
same,TGI,ACHN renal,19.8 µM
same,TGI,HS 578T breast,38.7 µM
same,TGI,T-47D breast,39 µM
same,TGI,IGROV1 ovarian,28.4 µM
same,TGI,K-562 leukemia,45 µM
same,TGI,SR leukemia,> 100 µM
same,TGI,OVCAR-5 ovarian,28.6 µM
same,TGI,HT29 colon,18.4 µM
same,TGI,OVCAR-4 ovarian,32.9 µM
same,TGI,RXF 393 renal,26.3 µM
same,TGI,SF-295 CNS,34.5 µM
same,TGI,SNB-75 CNS,32.9 µM
same,TGI,MOLT-4 leukemia,36.2 µM
same,TGI,RPMI-8226 leukemia,35.4 µM
same,TGI,OVCAR-8 ovarian,27.4 µM
same,TGI,PC-3 prostate,24 µM
same,TGI,HCT-116 colon,23.8 µM
same,TGI,SNB-19 CNS,31.5 µM
same,TGI,OVCAR-3 ovarian,32.5 µM
same,TGI,NCI-H522 lung,28.6 µM
same,TGI,HOP-62 NSCLC,34.5 µM
same,TGI,NCI-H226 lung,39.8 µM
same,TGI,KM12 colon,63.2 µM
same,TGI,MDA-MB-435,34.6 µM
same,TGI,NCI-H460 lung,44.9 µM
same,TGI,DU-145 prostate,34.8 µM
same,TGI,LOX IMVI melanoma,29.8 µM
same,TGI,UACC-62 melanoma,24.2 µM
same,TGI,SK-MEL-2 melanoma,30.8 µM
same,TGI,SN12C renal,34 µM
